Assay results from article PMC10714399, “Open Source Antibiotics: Simple Diarylimidazoles Are Potent against Methicillin-Resistant Staphylococcus aureus” (ACS Infectious Diseases, 2023).
In brackets after ≈: the same amount, converted by molar mass. Where two headings read alike, the source gives them in different places. Values belong to the molecule of their own block, whether it stands above or below them.

Assays:
[1] = Kinetic solubility estimation using nephelometry (Monash); format: physicochemical; conditions: for solubility kinetic at 30 min: kinetic from dmso stock; for Sol 2.0: approx pH 2.0
Experimental: Compound in DMSO was spiked into either pH 6.5 phosphate buffer or 0.01 M HCl (approximately pH 2.0) with the final DMSO concentration being 1%. […]
b) Kinetic Solubility Estimation using Nephelometry (SolpH)
Compound in DMSO was spiked into either pH 6.5 phosphate buffer or 0.01 M HCl (approx pH 2.0) with the final
DMSO concentration being 1%. After 30 minutes had elapsed, samples were then analysed via Nephelometry to
determine a solubility range. See Bevan and Lloyd (2000) Anal Chem, 72:1781-1787. […]
(§1) In Vitro Intrinsic Clearance […]
(§2) Experimental results are tabulated on the following page(s).
(§3) (1 picture or pasted object on this page, not shown here)

[2] = In vitro metabolic stability, rat liver microsomes (Monash); format: in vitro ADME; conditions: for CLint, in vitro / T1/2: NADPH
Experimental: (§4) The metabolic stability assay was performed by incubating each test compound with a suspension of liver microsomes (0.4 mg/mL protein, 1 μM substrate, 37 °C). Microsomes were purchased from XenoTech. The metabolic reaction was initiated by the addition of an NADPH-regenerating system and quenched at various time points over a 60 min incubation by the addition of acetonitrile containing metolazone as an internal standard. Control samples (containing no NADPH) were included (quenched at 2, 30, and 60 min) to monitor for potential degradation in the absence of cofactor. […]
(§5) d) In Vitro Metabolic Stability
(§6) The metabolic stability assay was performed by incubating each test compound with a suspension of liver
(§7) microsomes (0.4 mg/mL, 37°C). The metabolic reaction was initiated by the addition of an NADPH-regenerating
(§8) system and quenched at various time points over a 60 minute incubation by the addition of acetonitrile containing
(§9) metolazone as internal standard. Control samples (containing no NADPH) were included (quenched at 2, 30 and 60
(§10) minutes) to monitor for potential degradation in the absence of cofactor.
(§11) The human liver microsomes used in this experiment were supplied by XenoTech, lot # 1710084.The rat liver
(§12) microsomes used in this experiment were supplied by XenoTech, lot # 1610290. Microsomal incubations were
(§13) performed at a substrate concentration of 1 µM.
(§14) Data analysis and interpretation:
(§15) Substrate depletion as a function of time was analysed as described by Obach (1999) Drug Metab. Dispos., 27:1350-
(§16) 1359. Intrinsic clearance (CLint) values were classified at the limits of low and high clearance bands based on a
(§17) rearrangement of the well stirred model of hepatic elimination. It should be noted that the potential impact of
(§18) compound binding (either in microsomes or in blood) on the relationship between in vitro intrinsic clearance and
(§19) hepatic clearance in vivo has not been accounted for in these studies.
(§20) In Vitro Intrinsic Clearance
(§21) Species (µL/min/mg protein)
(§22) Low Clearance High Clearance
as §2, §3

[3] = In vitro metabolic stability, human liver microsomes (Monash); format: in vitro ADME; conditions: for CLint, in vitro / T1/2: NADPH
Experimental: as §4, §5, §6, §7, §8, §9, §10, §11, §12, §13, §14, §15, §16, §17, §18, §19, §20, §21, §22, §2, §3

[4] = tested on: Staphylococcus aureus ATCC 43300 MRSA; assay: CO-ADD antibacterial assay (growth inhibition, MIC), MRSA; format: cell-based; conditions: read-out: MRSA MIC (CO-ADD)
Experimental: Hit Confirmation of active compounds by whole cell growth inhibition assays was conducted as an 8-point dose response to determine the Minimum Inhibitory Concentration (MIC), in duplicate (n=2). The inhibition of growth is measured against those microorganisms that […]
Included in the Hit Confirmation were 5 bacteria: Escherichia coli, Klebsiella pneumoniae, Acinetobacter baumannii, Pseudomonas aeruginosa and Staphylococcus aureus, and 2 fungi Candida albicans and Cryptococcus neoformans. […]
Assay Parameters Bacteria Fungi HEK293 Haemolysis […]
Duplicate (n=2) Duplicate (n=2) Duplicate (n=2) Duplicate (n=2)
QC Control MIC: Control MIC: Control CC50: Control HC10:
Non-Binding Non-Binding TC, 384-well Polypropylene
Plates Surface (NBS), Surface (NBS), black wall/clear 384-well and 384-well plate 384-well plate bottom polystyrene 384-
Cation-adjusted Yeast Nitrogen DMEM
Media Mueller Hinton Base supplemented 0.9% NaCl
Hit Confirmation outcomes are detailed in individual Project reports, personalised for each Project Submission for each CO-ADD user.
Please see your data sheet with file extension P0XXX_HC_data.xlsx, for example CO-ADD Project P0100, P0100_HC_data.xlsx
Study: HC_data ID: HC-Procedures & Materials
Date: Last updated June 2018 Confidential Page 3 of 11
as §3
Samples were provided by the collaborator and stored frozen at -20 °C. Samples were prepared in DMSO and water to a final testing concentration of 32 µg/mL or 20 µM (unless otherwise indicated in the data sheet) and serially diluted 1:2 fold for 8 times. Each sample concentration was prepared in 384-well plates, non-binding surface plate (NBS; Corning 3640) for each bacterial/fungal strain, tissue-culture treated (TC-treated; Corning 3712/3764) black for mammalian cell types and polypropylene 384-well (PP; Corning 3657) for haemolysis assays, all in duplicate (n=2), and keeping the final DMSO concentration to a maximum of 0.5%. All the sample preparation was done using liquid handling robots. […]
detailed in the Data sheet for the individual Project.
All bacteria were cultured in Cation-adjusted Mueller Hinton broth (CAMHB) at 37 °C overnight. A sample of each culture was then diluted 40-fold in fresh broth and incubated at 37 °C for 1.5-3 h. The resultant mid-log phase cultures were diluted (CFU/mL measured by OD600), then added to each well of the compound containing plates, giving a cell density of 5×10^5 CFU/mL and a total volume of 50 µL. All the plates were covered and incubated at 37 °C for 18 h without shaking.
Inhibition of bacterial growth was determined measuring absorbance at 600 nm (OD600), using a Tecan M1000 Pro monochromator plate reader. The percentage of growth inhibition was calculated for each well, using the negative control (media only) and positive control (bacteria without inhibitors) on the same plate as references.
The percentage of growth inhibition was calculated for each well, using the negative control (media only) and positive control (bacteria without inhibitors) on the same plate. The MIC […]
by an inhibition ≥ 80%. In addition, the maximal percentage of growth inhibition is reported as DMax, indicating any compounds with partial activity.
Date: Last updated June 2018 Confidential Page 5 of 11
Material Code Brand/Supplier Cat No.
Compound preparation plate, Polypropylene PP Corning 3364
Assay Plates – Antimicrobial
Non-binding surface NBS 384w Corning 3640
Assay Plates – Cytotoxicity
Tissue culture treated Black/Clear bottom 384w Corning 3712
Assay Plates - Haemolysis PP-Haem Corning 3657 […]
Growth media - bacteria CAMHB Bacto Laboratories 212322
Culture agar - fungi YPD Becton Dickinson 242720
Growth media - fungi YNB Becton Dickinson 233520
Resazurin Sigma-Aldrich R7017
Dulbecco's Modified Eagle Medium DMEM Life Technologies 11995-073
Foetal Bovine Serum FBS Bovogen FFBS-500
0.9% NaCl Saline Baxter AHF7124
Sample Name Sample ID MW Conc. Solvent Source […]

[5] = Distribution coefficient estimation using chromatography, gLogD (Monash); format: physicochemical
Source text: Partition coefficient values (LogD) of the test compounds were estimated at pH 7.4 by the correlation of their chromatographic retention properties against the characteristics of a series of standard compounds with known partition coefficient values. The method employed is a gradient HPLC-based derivation of the method developed by Lombardo.[42] […]
c) Distribution Coefficient Estimation using Chromatography (gLogDpH)
Partition coefficient values (LogD) of the test compounds were estimated at pH 7.4 by correlation of their
chromatographic retention properties against the characteristics of a series of standard compounds with known
partition coefficient values. […]
as §1, §2, §3

[6] = tested on: Staphylococcus aureus NCTC 13373 (mecA-positive; methicillin-resistant); assay: In vitro antibacterial activity, MIC (UCL School of Pharmacy assay), MRSA; format: cell-based; conditions: Staphylococcus aureus, UCL; read-out: MRSA MIC (UCL)
In short: (§23)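 Broth microdilution MIC in isosensitest broth; inoculum from overnight tryptone soya agar culture suspended in PBS to A600 0.1 (~1 × 10^8 CFU/mL), then diluted 1:100. Compounds tested as 2-fold series from 32 to 0.03 μg/mL, DMSO at most 2%; vancomycin as quality control.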

Aqueous solubility = format: physicochemical; conditions: NEU
[7] = tested on: PMM (primary mouse macrophages); assay: Toxicity against PMM; format: cell-based; conditions: PMM
Experimental: (§24) ADME and toxicity for compounds were measured according to procedures outlined in the manuscript submitted in parallel to this one;2 other procedures were used for those compounds analysed by Monash University (in vitro ADME) or UCL (toxicity), both described in the main

[8] = Human liver microsome intrinsic clearance; format: in vitro ADME; conditions: human liver microsomes, NEU
THP1 = assay: Toxicity against THP1; format: cell-based; conditions: THP1 cells
Source text: Supplement id3c00286_si_002.xlsx, sheet "Series 2 Data" | column: THP1 TC50 (uM)

U2OS = assay: Toxicity against U2OS; format: cell-based; conditions: U2OS cells
Source text: Supplement id3c00286_si_002.xlsx, sheet "Series 2 Data" | column: U2OS TC50 (uM)

[9] = tested on: MRC-5SV2 (human lung fibroblast cell line); assay: Toxicity against MRC-5SV2; format: cell-based; conditions: MRC5 cells
Experimental: as §24

LogD7.4 (Chrom Log D) = format: physicochemical; conditions: chromatographic system (Chrom Log D); pH 7.4, NEU; read-out: LogD 7.4 (NEU)
[10] = Rat hepatocyte intrinsic clearance; format: in vitro ADME; conditions: rat hepatocytes, NEU
[11] = tested on: Enterococcus faecalis ATCC 51299 (vanA-positive; vancomycin-resistant); assay: In vitro antibacterial activity, MIC (UCL), VRE; format: cell-based; conditions: read-out: VRE MIC (UCL)
In short: as §23

solubility kinetic at 30 min ([1]; 0.01 M HCl, simulated gastric fluid, pH 2.0, read-out: Sol (pH 2.0) (Monash)): > 100 µg/mL
solubility kinetic at 30 min ([1]; pH 6.5 phosphate buffer, pH 6.5, aqueous buffer, read-out: Sol (pH 6.5) (Monash)): 25 to 50 µg/mL (≈ 79.3 to 159 µM)
microsomal CLint at 1 µM ([2]; Monash, read-out: RLM Clint (Monash)): 99 µL/min/mg
half-life at 1 µM ([2]; Monash, read-out: RLM t1/2 (Monash)): 18 min
microsomal CLint at 1 µM ([3]; Monash, read-out: HLM Clint (Monash)): 47 µL/min/mg
half-life at 1 µM ([3]; Monash, read-out: HLM t1/2 (Monash)): 37 min
MIC [4]: 32 µg/mL (≈ 101 µM)
chromatographic logD ([5]; gradient HPLC retention against standard compounds, pH 7.4): 1.8
Compound: c1ccc(-c2nc3ccccn3c2-c2ccc3c(c2)OCO3)nc1 [OSA_000814]

Sol 2.0 ([1]; 0.01 M HCl): > 100 µg/mL
Sol 6.5 ([1]; pH 6.5 phosphate buffer): 25 to 50 µg/mL
CLint, in vitro [2]: 72 µL/min/mg protein
T1/2 [2]: 24 min
CLint, in vitro [3]: 51 µL/min/mg protein
T1/2 [3]: 34 min
gLogD at pH 7.4 [5]: 1.9
Compound: c1ccc(-c2nc3n(c2-c2ccc4occc4c2)CCC3)nc1 [UNC-ALM-DAI-27]

MIC [6]: 32 µg/mL (≈ 111 µM)
Aqueous Solubility (NEU) (Aqueous solubility): 178 µM
HLM CLint (NEU) [8]: 168 uL/min/mg protein
chromatographic logD (LogD7.4 (Chrom Log D)): 3
Rat Hep CLint (NEU) [10]: 49.8 uL/min/10x6 cells
MIC [11]: > 32 µg/mL
Compound: Fc1ccc(-c2c(-c3ccccn3)nc3ccccn23)cc1 [OSA_000859]
PMM TC50 [7]: 32 µM
THP1 TC50 (THP1): 17 µM
U2OS TC50 (U2OS): 4.54 µM
MRC5 TC50 [9]: 10.3 µM

Sol 2.0 ([1]; 0.01 M HCl): 25 to 50 µg/mL
Sol 6.5 ([1]; pH 6.5 phosphate buffer): 12.5 to 25 µg/mL
CLint, in vitro [2]: 74 µL/min/mg protein
T1/2 [2]: 23 min
CLint, in vitro [3]: 37 µL/min/mg protein
T1/2 [3]: 47 min
gLogD at pH 7.4 [5]: 1.6
Compound: c1ccc(-c2nc3n(c2-c2ccc4c(c2)OCO4)CCS3)nc1 [UNC-ALM-DAI-16]
